Measured values as given in patent US20260049089A1, “KRAS INHIBITOR COMPOUND” (SHANGHAI APEIRON THERAPEUTICS COMPANY LIMITED, priority 2022, published 2026).
Like-named read-outs stand apart in the source and are kept apart here.

How the values were obtained:
[1] = the molecule shown is the open-chain precursor
[2] = tested on: pERK in AGS cells; assay: ERK phosphorylation cell assay, AGS; format: cell-based; details: 3 hours compound incubation, read-out: pERK AGS_IC50
Procedure, shortened: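 AGS […] cells, seeded overnight, were treated with compound for 3 hours at 37° C. pERK was detected by in-cell immunofluorescence, with GAPDH as normalizer, using 800CW/680RD secondary antibodies. Mean relative p-ERK levels were fitted against log concentration, with DMSO as negative and 10 μM Reference as positive control.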

[3] = tested on: AsPC-1 cells; assay: 3D cell proliferation assay (CellTiter-Glo 3D), AsPC-1; format: cell-based; details: 5 days, read-out: 3D Proliferation Inhibition AsPC-1_IC50
Protocol: (§1) Using a nanoliter liquid handling system (LABCYTE, P-0200), the diluted test compounds were added to a 384-well low-adsorption cell culture plate. Cells were seeded into the wells, and the plate was placed in an incubator at 37° C. with 5% CO2. After co-incubating the compounds and cells for 5 days, CellTiter-Glo® 3D reagent was added. Luminescence values were measured using an EnVision Multilabel Plate Reader (luminescence is proportional to the ATP content in the system, and ATP content directly reflects the number of viable cells). Finally, the IC50 values (half-maximal inhibitory concentrations) of the compounds were determined using non-linear fitting equations in XLFit software with the following parameters: […]
(§2) X: Logarithm of compound concentration • Y: Inhibition rate (%)
(§3) [formula] • Negative control: DMSO • Positive control: Medium only

[4] = tested on: pERK in AsPC-1 cells; assay: ERK phosphorylation cell assay, AsPC-1; format: cell-based; details: read-out: pERK AsPC-1_IC50
[5] = tested on: AGS cells; assay: 3D cell proliferation assay (CellTiter-Glo 3D), AGS; format: cell-based; details: 5 days, read-out: 3D Proliferation Inhibition AGS_IC50
Protocol: as §1, §2, §3

[6] = Homo sapiens, ASPC1, AsPC-1 cells

| SMILES | IC50 ([2]; Homo sapiens, AGS, 3 h) | IC50 ([3]; Homo sapiens, ASPC1, 120 h) | IC50 [4, 6] | IC50 ([5]; Homo sapiens, AGS, 120 h) | other results |
| --- | --- | --- | --- | --- | --- |
| C#CCCCCC(=O)Nc1cc2c(N3C[C@H]4CC[C@@H](C3)N4C(=O)OC(C)(C)C)nc(OCC(F)(F)F)nc2c(F)c1-c1cc(OCOC)cc2ccc(F)c(C#C)c12 | – | – | – | – | ring closure, isolated yield ([1]; cc_pd bond, 15-membered ring, PdCl2(PPh3)2/CuI/I2, toluene/iPr2NH 1:1, 1.1 mM, 80.0 °C): 53% |
| COCOc1cc(-c2c(NC(=O)OCc3ccccc3)cc3c(N4C[C@H]5CC[C@@H](C4)N5C(=O)OC(C)(C)C)nc(OCC(F)(F)F)nc3c2F)c2c(CCCCCCO)c(F)ccc2c1 | – | – | – | – | ring closure, isolated yield ([1]; amine bond, 12-membered ring, PPh3/DIAD, THF, 32.5 mM, 65.0 °C): 34% |
| [2H]C([2H])([2H])N1CCOCCc2c(F)ccc3cc(O)cc(c23)-c2c1cc1c(N3CCC[C@@](C)(O)C3)nc(OC[C@@]34CCCN3C[C@H](F)C4)nc1c2F [Example 46, 3,15-difluoro-13-(((2R,7aS)-2-fluorotetrahydro-1H-pyrazin-7a(5H)-yl)methoxy)-11-((R)-3-hydroxy-3-methylpiperidin-1-yl)-9-(trideuteromethyl)-4,5,8,9-tetrahydro-7H-naphtho[1′,8′:7,8,9][1]oxa[4]azacycloundeca[5,6-g]quinazoline-17-ol] | 5.8 nM | 30 nM | 11 nM | 12 nM | – |
| CN1CCOCCc2c(F)ccc3cc(O)cc(c23)-c2c1cc1c(N3CCC[C@@](C)(O)C3)nc(OC[C@@]34CCCN3C[C@H](F)C4)nc1c2F [Example 47, 3,15-difluoro-13-(((2R,7aS)-2-fluorotetrahydro-1H-pyrazin-7a(5H)-yl)methoxy)-11-((R)-3-hydroxy-3-methylpiperidin-1-yl)-9-methyl-4,5,8,9-tetrahydro-7H-naphtho[1′,8′:7,8,9][1]oxa[4]azacycloundeca[5,6-g]quinazoline-17-ol] | – | – | – | – | IC50 [2]: 2.7 nM; IC50 [3]: 28 nM; IC50 ([4]; AsPC-1 cells): 7.9 nM; IC50 [5]: 8.8 nM |

The next lines start with results.

| IC50 ([2]; Homo sapiens, AGS, 3 h) | IC50 ([3]; Homo sapiens, ASPC1, 120 h) | IC50 [4, 6] | IC50 ([5]; Homo sapiens, AGS, 120 h) | SMILES | other results |
| --- | --- | --- | --- | --- | --- |
| 3.3 nM | 42 nM | 17 nM | 7.4 nM | C=C1CN2CCCC2(COc2nc(N3CCC[C@@](C)(O)C3)c3cc4c(c(F)c3n2)-c2cc(O)cc3ccc(F)c(c23)CCOCCN4C)C1 (some centres unmarked) [Example 48] | – |
| 20 nM | 112 nM | 17 nM | 83 nM | C=C1CN2C[C@H](F)C[C@]2(COc2nc(N3CCC[C@@](C)(O)C3)c3cc4c(c(F)c3n2)-c2cc(O)cc3ccc(F)c(c23)CCOCCN4C)C1 [Example 49] | – |
| 659 nM | 1260 nM | 892 nM | 885 nM | C=C1CN2CCC[C@@]2(COc2nc(N3CCC[C@@](C)(O)C3)c3cc4c(c(F)c3n2)-c2cccc3ccc(F)c(c23)CCOCCN4C)C1 [Example 54, (R)-1-(3,15-difluoro-9-methyl-13-(((S)-2-methylenetetrahydro-1H-pyrazin-7a(5H)-yl)methoxy)-4,5,8,9-tetrahydro-7H-naphtho[1′,8′:7,8,9][1]oxa[4]azacycloundeca[5,6-g]quinazoline-11-yl)-3-methylpiperidin-3-ol] | – |
| 206 nM | 1460 nM | 707 nM | 668 nM | C=C1CN2CCC[C@@]2(COc2nc(N3CCC[C@@](C)(O)C3)c3cc4c(c(F)c3n2)-c2cc(N)cc3ccc(F)c(c23)CCOCCN4C)C1 [Example 56, (R)-1-(17-amino-3,15-difluoro-9-methyl-13-(((S)-2-methylenetetrahydro-1H-pyrazin-7a(5H)-yl)methoxy)-4,5,8,9-tetrahydro-7H-naphtho[1′,8′:7,8,9][1]oxa[4]azacycloundeca[5,6-g]quinazoline-11-yl)-3-methylpiperidin-3-ol] | – |
